Measured values reported in publication PMC10855902 (International Journal of Molecular Sciences, 2024).

Tested on: anti-EGF rabbit polyclonal antibodies (Abcam 9695)
Assay: Dot blot of cellulose-immobilized EGF decapeptides with anti-EGF polyclonal antibodies;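 on Intensity (Staining Value): higher gray value means stronger antibody binding with above 120 very strong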
Format: binding
Conditions: for Intensity (ability to interact with polyclonal antibodies) / interaction with polyclonal anti-EGF antibodies (in words): peptide on cellulose matrix; for Intensity (ability to interact with polyclonal antibodies): antibody 1:1000, 1 h room temperature; for Intensity (Staining Value): scanned spot, 256 gray scale (ImageJ)
Description: Dot blot reactions were performed using primary anti-EGF rabbit polyclonal antibodies (Abcam 9695) (Cambridge, UK) and secondary goat anti-rabbit antibodies conjugated with HRP (Abcam 205718). The procedure for using the dot blot method to analyze peptides immobilized on a cellulose matrix through a triazine linker was optimized in a previous study by the authors and ensures the elimination of non-specific impacts.
The solution was then removed, and the membranes were treated overnight at room temperature with blocking buffer (3% BSA in PBS, 40 mL, pH 7.4). The cellulose sheets were then washed with PBS buffer (40 mL, 5 min, pH 7.4). […] The membranes were then washed with Tween-80 solution in PBS (0.4%, 40 mL, 2 × 5 min) and PBS (40 mL, 5 min). Goat Anti-Rabbit IgG antibodies were conjugated with HRP (Abcam 205718, 20 μL) diluted 1:1000 in 1% BSA in PBS (20 mL, pH 7.4) and then incubated with cellulose sheets for 30 min at room temperature. The membranes were then washed with Tween-80 solution in PBS (0.4%, 40 mL, 2 × 5 min) and PBS (40 mL, 5 min). Visualization of the reactions was performed using 4-chloro-1-naphtol (Sigma–Aldrich). The cellulose sheets were placed into 0.15 mg/mL solution of 4-chloro-1-naphtol in MeOH:PBS (1:5, 15 mL) with the addition of 7.5 μL of H2O2; reaction time was 30 min. The membranes were washed with distilled water, air-dried, and scanned. In places where immunological complexes developed, blue precipitate was observed. The applied dot blot test procedure ensures the elimination of non-specific interactions. Additionally, using the same SPOT synthesis procedure, a library of type IV collagen fragments was obtained. […] The gray levels of the immunological reactions were determined using ImageJ Version 1.53n7 (https://imagej.nih.gov/ij/index.html, accessed on 17 October 2021) computer imaging software.

Substance	Intensity (ability to interact with polyclonal antibodies)	Intensity (Staining Value)	interaction with polyclonal anti-EGF antibodies (in words)
H-^1NSDSECPLSH^10-matrix [A1]	− ((−), where the color intensity value was <45)	14.8	–
H-^2SDSECPLSHD^11-matrix [A2]	− ((−), where the color intensity value was <45)	22.3	–
H-^3DSECPLSHDG^12-matrix [A3]	+/− (moderately strong (+/−), for which the color intensity value was in the range of 90–45)	71.7	–
H-^4SECPLSHDGY^13-matrix [A4]	+/− (moderately strong (+/−), for which the color intensity value was in the range of 90–45)	55.2	–
H-^5ECPLSHDGYC^14-matrix [A5]	+/− (moderately strong (+/−), for which the color intensity value was in the range of 90–45)	–	–
H-^6CPLSHDGYCL^15-matrix [A6]	+/− (moderately strong (+/−), for which the color intensity value was in the range of 90–45)	–	–
H-^7PLSHDGYCLH^16-matrix [A7]	+/− (moderately strong (+/−), for which the color intensity value was in the range of 90–45)	62.2	–
H-^8LSHDGYCLHD^17-matrix [A8]	+/− (moderately strong (+/−), for which the color intensity value was in the range of 90–45)	59.3	–
H-^9SHDGYCLHDG^18-matrix [A9]	+/− (moderately strong (+/−), for which the color intensity value was in the range of 90–45)	63.8	–
H-^10HDGYCLHDGV^19-matrix [A10]	+ (strong (+), for which the staining intensity value was in the range of 120–90)	91.3	–
H-^11DGYCLHDGVC^20-matrix [A11]	+ (strong (+), for which the staining intensity value was in the range of 120–90)	90.5	–
H-^12GYCLHDGVCM^21-matrix [A12]	+ (strong (+), for which the staining intensity value was in the range of 120–90)	92.4	–
H-^13YCLHDGVCMY^22-matrix [A13]	+ (strong (+), for which the staining intensity value was in the range of 120–90)	93.0	–
H-^14CLHDGVCMYI^23-matrix [A14]	− ((−), where the color intensity value was <45)	31.6	inactive
H-^15LHDGVCMYIE^24-matrix [A15]	− ((−), where the color intensity value was <45)	41.6	no affinity for antibodies
H-^16HDGVCMYIEA^25-matrix [A16]	− ((−), where the color intensity value was <45)	44.8	low affinity
H-^17DGVCMYIEAL^26-matrix [A17]	+/− (moderately strong (+/−), for which the color intensity value was in the range of 90–45)	88.9	–
H-^18GVCMYIEALD^27-matrix [A18]	+ (strong (+), for which the staining intensity value was in the range of 120–90)	116.0	–
H-^19VCMYIEALDK^28-matrix [A19]	++ (very strong (++), for which the staining intensity value was >120)	128.0	–
H-^20CMYIEALDKY^29-matrix [A20]	++ (very strong (++), for which the staining intensity value was >120)	132.8	–
H-^21MYIEALDKYA^30-matrix [B1]	++ (very strong (++), for which the staining intensity value was >120)	130.3	–
H-^22YIEALDKYAC^31-matrix [B2]	++ (very strong (++), for which the staining intensity value was >120)	122.4	–

Substance	Intensity (ability to interact with polyclonal antibodies)	Intensity (Staining Value)	interaction with polyclonal anti-EGF antibodies (in words)
H-^23IEALDKYACN^32-matrix [B3]	+/− (moderately strong (+/−), for which the color intensity value was in the range of 90–45)	63.8	lower affinity for antibodies
H-^24EALDKYACNC^33-matrix [B4]	− ((−), where the color intensity value was <45)	30.5	no affinity for antibodies
H-^25ALDKYACNCV^34-matrix [B5]	− ((−), where the color intensity value was <45)	29.6	–
H-^26LDKYACNCVV^35-matrix [B6]	+/− (moderately strong (+/−), for which the color intensity value was in the range of 90–45)	46.6	–
H-^27DKYACNCVVG^36-matrix [B7]	+/− (moderately strong (+/−), for which the color intensity value was in the range of 90–45)	55.3	–
H-^28KYACNCVVGY^37-matrix [B8]	+/− (moderately strong (+/−), for which the color intensity value was in the range of 90–45)	63.5	–
H-^29YACNCVVGYI^38-matrix [B9]	+ (strong (+), for which the staining intensity value was in the range of 120–90)	91.1	–
H-^30ACNCVVGYIG^39-matrix [B10]	+/− (moderately strong (+/−), for which the color intensity value was in the range of 90–45)	58.5	–
H-^31CNCVVGYIGE^40-matrix [B11]	+/− (moderately strong (+/−), for which the color intensity value was in the range of 90–45)	60.3	–
H-^32NCVVGYIGER^41-matrix [B12]	+/− (moderately strong (+/−), for which the color intensity value was in the range of 90–45)	56.3	–
H-^33CVVGYIGERC^42-matrix [B13]	+/− (moderately strong (+/−), for which the color intensity value was in the range of 90–45)	65.7	–
H-^34VVGYIGERCQ^43-matrix [B14]	+/− (moderately strong (+/−), for which the color intensity value was in the range of 90–45)	69.4	–
H-^35VGYIGERCQY^44-matrix [B15]	+ (strong (+), for which the staining intensity value was in the range of 120–90)	91.0	–
H-^36GYIGERCQYR^45-matrix [B16]	+ (strong (+), for which the staining intensity value was in the range of 120–90)	98.0	–
H-^37YIGERCQYRD^46-matrix [B17]	+ (strong (+), for which the staining intensity value was in the range of 120–90)	106.2	–
H-^38IGERCQYRDL^47-matrix [B18]	+/− (moderately strong (+/−), for which the color intensity value was in the range of 90–45)	76.1	–
H-^39GERCQYRDLK^48-matrix [B19]	− ((−), where the color intensity value was <45)	28.9	do not exhibit the ability to interact with antibodies
H-^40ERCQYRDLKW^49-matrix [B20]	–	–	do not exhibit the ability to interact with antibodies
H-^41RCQYRDLKWW^50-matrix [C1]	+ (strong (+), for which the staining intensity value was in the range of 120–90)	91.5	moderate binding to antibodies
H-^42CQYRDLKWWE^51-matrix [C2]	+ (strong (+), for which the staining intensity value was in the range of 120–90)	91.4	moderate binding to antibodies
H-^43QYRDLKWWEL^52-matrix [C3]	+ (strong (+), for which the staining intensity value was in the range of 120–90)	99.4	show interactions with polyclonal anti-EGF antibodies
